#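 Values below derive from 48-hour exposures of cells grown in 96-well plates, with endpoints linearly interpolated between the two concentrations bracketing the appropriate inhibition level. GI50 marks 50% less growth. At the TGI there is no net growth.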
# Legend:
# Assay in all cases: NCI anticancer screen, dose series, 48 h
# [1] = test system: EKVX NSCLC
# [2] = test system: RPMI-8226 leukemia
# [3] = test system: COLO 205 colon
# [4] = test system: OVCAR-8 ovarian
# [5] = test system: K-562 leukemia
# [6] = test system: HS 578T breast
# [7] = test system: HCC-2998 colon
# [8] = test system: SR leukemia
# [9] = test system: HOP-92 NSCLC
Structure (SMILES),TGI [1] [µM],TGI [2] [µM],TGI [3] [µM],TGI [4] [µM],TGI [5] [µM],TGI [6] [µM],TGI [7] [µM],TGI [8] [µM],GI50 [9] [µM],TGI [9] [µM],GI50 [7] [µM]
Cc1cccc(C(O)c2cccnc2)c1O (configuration not stated),> 100,> 100,> 100,> 100,> 100,> 100,> 100,> 100,,,
c1cc2ccc1CNCCN1CCNCc3ccc(cc3)Oc3ccc(cc3)CNCCN(CCNCc3ccc(cc3)O2)CCNCc2ccc(cc2)Oc2ccc(cc2)CNCC1,,,,,,,1.99,,0.0202,0.0501,0.659
COC(=O)[C@@H]1O[C@]12[C@@H](CO[Si](C)(C)C(C)(C)C)O[C@@H](n1cc(C)c(=O)[nH]c1=O)[C@@H]2O[Si](C)(C)C(C)(C)C,53.6,,> 100,53.4,40.2,42.5,,,,,

# From PubChem BioAssay (NCI)
